Source: article PMC10143825, “ABT-333 (Dasabuvir) Increases Action Potential Duration and Provokes Early Afterdepolarizations in Canine Left Ventricular Cells via Inhibition of IKr” (Pharmaceuticals, 2023)

Target: T1, hERG channel (Homo sapiens, UniProt Q12809)
T1 construct: gene KCNH2
Test: cell-based

T1 sequence (Q12809 whole entry): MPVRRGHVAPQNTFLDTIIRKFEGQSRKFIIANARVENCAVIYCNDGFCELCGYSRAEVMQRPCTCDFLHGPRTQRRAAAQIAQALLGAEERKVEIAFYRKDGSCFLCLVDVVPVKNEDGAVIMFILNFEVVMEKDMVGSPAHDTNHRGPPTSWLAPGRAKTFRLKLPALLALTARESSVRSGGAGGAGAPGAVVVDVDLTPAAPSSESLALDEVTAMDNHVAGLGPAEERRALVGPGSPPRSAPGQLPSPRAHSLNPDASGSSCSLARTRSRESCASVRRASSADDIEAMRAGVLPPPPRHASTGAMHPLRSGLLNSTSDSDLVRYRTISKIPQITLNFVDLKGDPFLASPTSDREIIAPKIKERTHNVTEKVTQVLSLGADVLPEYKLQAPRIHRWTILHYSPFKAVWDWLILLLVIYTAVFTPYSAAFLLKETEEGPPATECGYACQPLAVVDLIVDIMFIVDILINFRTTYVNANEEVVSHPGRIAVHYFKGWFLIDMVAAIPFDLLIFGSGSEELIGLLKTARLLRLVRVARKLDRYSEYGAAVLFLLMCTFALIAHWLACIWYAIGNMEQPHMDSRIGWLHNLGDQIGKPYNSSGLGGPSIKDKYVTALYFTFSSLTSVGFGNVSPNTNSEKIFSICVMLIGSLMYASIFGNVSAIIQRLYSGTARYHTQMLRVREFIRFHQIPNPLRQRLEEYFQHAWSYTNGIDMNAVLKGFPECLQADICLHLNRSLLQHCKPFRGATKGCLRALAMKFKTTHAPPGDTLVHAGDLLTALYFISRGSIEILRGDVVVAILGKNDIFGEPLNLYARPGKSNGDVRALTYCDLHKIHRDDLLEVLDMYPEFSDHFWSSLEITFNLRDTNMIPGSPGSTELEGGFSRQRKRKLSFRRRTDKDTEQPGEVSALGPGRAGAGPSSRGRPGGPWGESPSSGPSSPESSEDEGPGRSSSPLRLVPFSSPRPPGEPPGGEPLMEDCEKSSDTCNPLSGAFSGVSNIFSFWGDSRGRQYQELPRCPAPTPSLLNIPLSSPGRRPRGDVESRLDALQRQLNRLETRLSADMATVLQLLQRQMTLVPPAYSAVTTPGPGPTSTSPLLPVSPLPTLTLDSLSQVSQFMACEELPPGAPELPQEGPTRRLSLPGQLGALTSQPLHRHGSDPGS

## COc1c(-c2ccc3cc(NS(C)(=O)=O)ccc3c2)cc(-n2ccc(=O)[nH]c2=O)cc1C(C)(C)C [ABT-333]
  IC50: 3.2 µM
